Twelve compounds from ChEMBL document CHEMBL3751730, “Synthesis and in vitro antitumor evaluation of dihydroartemisinin-cinnamic acid ester derivatives” (Eur J Med Chem, 2016) can be followed below.

Holding throughout (type): functional, cell-based
Assay [1] has as its system A549. In words: Antiproliferative activity against human A549 cells after 72 hrs by MTT assay. As to conditions: A549, 72 h. Background: Formazan colour is commonly taken as a measure of viable cells.
Assay [2] is described as follows: Antiproliferative activity against human MDA-MB-435S cells after 72 hrs by MTT assay.
Assay [3] can be described thus: Antiproliferative activity against human PC3 cells after 72 hrs by MTT assay. As to conditions: PC-3, 72 h.
A short description of assay [4]: Antiproliferative activity against human SGC7901 cells after 72 hrs by MTT assay. The note with it: SGC-7901, 72 h.

Some results are limits rather than exact numbers.

By IC50 is commonly meant the concentration that inhibits the measured activity by half. As to `C[C@@H]1[C@H](OC(=O)/C=C/c2c(Cl)cccc2Cl)C[C@H]2[C@@H](C)[C@H](OC(=O)/C=C/c3c(Cl)cccc3Cl)O[C@@H]3O[C@@]4(C)CC[C@@H]1[C@]32OO4`, the 50% inhibitory concentration (IC50) is > 100 µM in assay [1], > 100 µM in assay [2], > 100 µM in assay [3] and 60.8 µM in assay [4].
In the case of `C[C@@H]1[C@H](O)C[C@H]2[C@@H](C)[C@H](OC(=O)CCc3ccccc3)O[C@@H]3O[C@@]4(C)CC[C@@H]1[C@]32OO4`, the IC50 in assay [1], in assay [2], in assay [3] and in assay [4] was > 100 µM throughout.
Regarding `C[C@@H]1[C@H](OC(=O)/C=C/c2ccc(Br)cc2)C[C@H]2[C@@H](C)[C@H](OC(=O)/C=C/c3ccc(Br)cc3)O[C@@H]3O[C@@]4(C)CC[C@@H]1[C@]32OO4`, the 50% inhibitory concentration (IC50) in assay [1] is 35.3 µM; in assay [2], > 100 µM; in assay [3], 19.7 µM; in assay [4], 35.8 µM.
On the same counts, the results for `COc1ccc(/C=C/C(=O)O[C@@H]2O[C@@H]3O[C@@]4(C)CC[C@H]5[C@H](C)[C@H](O)C[C@@H]([C@H]2C)[C@@]35OO4)cc1` are > 100 µM, 87.1 µM, > 100 µM and > 100 µM.
On the same counts, the results for `C[C@@H]1[C@H](O)C[C@H]2[C@@H](C)[C@H](OC(=O)/C=C/c3ccccc3)O[C@@H]3O[C@@]4(C)CC[C@@H]1[C@]32OO4` are > 100 µM, 76.3 µM, > 100 µM and > 100 µM.
Turning to `C[C@@H]1[C@H](O)C[C@H]2[C@@H](C)[C@H](OC(=O)/C=C/c3ccccc3F)O[C@@H]3O[C@@]4(C)CC[C@@H]1[C@]32OO4`, the IC50 in assay [1] is 92.7 µM; in assay [2], 47.1 µM; in assay [3], 89.6 µM; in assay [4], > 100 µM.
On to `C[C@@H]1[C@H](O)C[C@H]2[C@@H](C)[C@H](OC(=O)/C=C/c3ccc(F)cc3)O[C@@H]3O[C@@]4(C)CC[C@@H]1[C@]32OO4`, for which the concentration for half-maximal inhibition (IC50) in assay [1], in assay [2], in assay [3] and in assay [4] was > 100 µM in each case.
Take `C[C@@H]1[C@H](O)C[C@H]2[C@@H](C)[C@H](OC(=O)/C=C/c3ccc(Br)cc3)O[C@@H]3O[C@@]4(C)CC[C@@H]1[C@]32OO4`: the concentration for half-maximal inhibition (IC50) was > 100 µM in assay [1], 84.5 µM in assay [2], > 100 µM in assay [3] and > 100 µM in assay [4].
`C[C@@H]1[C@H](OC(=O)/C=C/c2ccccc2F)C[C@H]2[C@@H](C)[C@H](OC(=O)/C=C/c3ccccc3F)O[C@@H]3O[C@@]4(C)CC[C@@H]1[C@]32OO4`: the IC50 in assay [1] was 4.66 µM; in assay [2], 18.8 µM; in assay [3], 12.5 µM; in assay [4], > 100 µM.
On the same counts, the results for `COc1ccc(/C=C/C(=O)O[C@@H]2O[C@@H]3O[C@@]4(C)CC[C@H]5[C@H](C)[C@H](O)C[C@@H]([C@H]2C)[C@@]35OO4)c(OC)c1OC` are 40.1 µM, 69.9 µM, > 100 µM and > 100 µM.
On the same counts, the results for `COc1ccccc1/C=C/C(=O)O[C@@H]1O[C@@H]2O[C@@]3(C)CC[C@H]4[C@H](C)[C@H](O)C[C@@H]([C@H]1C)[C@@]24OO3` are > 100 µM, 74.1 µM, 74.9 µM and > 100 µM.
On the same counts, the results for `COc1cccc(/C=C/C(=O)O[C@@H]2O[C@@H]3O[C@@]4(C)CC[C@H]5[C@H](C)[C@H](O)C[C@@H]([C@H]2C)[C@@]35OO4)c1` are > 100 µM, > 100 µM, > 100 µM and > 100 µM.
